The values below are quoted from earlier work in patent publication US20240350489A1, “LOU064 FOR TREATING MULTIPLE SCLEROSIS” (NOVARTIS AG, priority 2021, published 2024).

“Also recorded” adds a separate entry of the source. Where two headings read alike, the source gives them in different places.

For series [1] the following is noted: cited from earlier work.
For series [2], the system named is experimental autoimmune encephalomyelitis (EAE). The settings on record: cited from earlier work.
The conditions of series [3]: cited from earlier work. The source holds these as a separate data set.

In the case of `C=CC(=O)N1CCC[C@@H](n2c(=O)n(-c3ccc(Oc4ccccc4)cc3)c3c(N)nccc32)C1` [tolebrutinib], in series [1] (human, in vivo), the dose-limiting side effects result is reported as “dose-limiting diarrhea”. Moreover, in series [1] (mid-stage trials), the MS lesion development entry was “reduction in MS lesion development”; the “most frequent adverse events” value is “headaches and cold-like symptoms”.
With `C=CC(=O)N1CCC(CNc2ncnc(N)c2-c2ccc(Oc3ccccc3)cc2)CC1` [evobrutinib], the “efficacy in EAE” value in series [2] (3 mg/kg) is on record as “effective”; in series [2] (10 mg/kg vs 3 mg/kg), “did not further improve the effect”. Also, the “elevations of ALT, AST and lipase” value in series [3] (75 mg once daily and twice daily) is on record as “dose-limiting liver enzyme elevations; also recorded: higher frequency of elevations”. Also, in series [3] (75 mg once or twice per day vs placebo or dimethyl fumarate), the “brain lesions and relapses” value is “trend toward developing fewer brain lesions and experiencing fewer relapses”.
